Experiment [1] deals with MATIN. Kind of experiment: Post-emergence herbicidal effect, greenhouse pot test. It is filed as in vivo, Tripleurospermum inodorum. Conditions: Tripleurospermum inodorum, 504 h, read-out: Post-emergence effect against MATIN in %. In short, it runs like this: (§1)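 Visual % activity scored roughly 3 weeks post-spray against untreated plants, where 100% means death and 0% equals control. Plants were treated at the one-leaf stage, 2 to 3 weeks after sowing in sandy loam, at 20 to 320 g/ha.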

The subject of experiment [2] is ABUTH. The experiment is described as above. It is filed as in vivo, Abutilon theophrasti. Particulars: Abutilon theophrasti, 504 h, visual rating about 3 weeks after treatment, read-out: Post-emergence effect against ABUTH. In short, it runs like this: as §1
Experiment [3] deals with POLCO. The experiment is described as above. It is filed as in vivo, Fallopia convolvulus. Conditions: 320 g/ha. In short, it runs like this:
as §1

Experiment [4] relates to VERPE. Described as above. Particulars: Veronica persica, 504 h, read-out: Post-emergence effect against VERPE in %. Format: in vivo, Veronica persica. In short, it runs like this: as §1
For experiment [5], the system named is DIGSA. The description is as above. Conditions: Digitaria sanguinalis, 504 h, 320 g/ha, visual rating about 3 weeks after treatment, read-out: Post-emergence effect against DIGSA. Format: in vivo, Digitaria sanguinalis. In short, it runs like this: as §1
Experiment [6] deals with ALOMY. The experiment is described as above. Format: in vivo, Alopecurus myosuroides. Particulars: Alopecurus myosuroides, 504 h, 320 g/ha, visual rating about 3 weeks after treatment, read-out: Post-emergence effect against ALOMY. In short, it runs like this:
as §1

In experiment [7] the test system is AVEFA. The description is as above. Conditions: 320 g/ha, visual rating about 3 weeks after treatment. Format: in vivo, Avena fatua. The gist of the method:
as §1

For experiment [8], the system named is PHBPU. The experiment is described as above. It is filed as in vivo, Ipomoea purpurea. Particulars: Ipomoea purpurea, 504 h, read-out: Post-emergence effect against PHBPU in %. The gist of the method:
as §1

The test system of experiment [9] is SETVI. The description is as above. It is filed as in vivo, Setaria viridis. Particulars: Setaria viridis, 504 h, read-out: Post-emergence effect against SETVI in %. The gist of the method:
as §1

The subject of experiment [10] is ECHCG. The description is as above. Conditions: Echinochloa crus-galli, 504 h, read-out: Post-emergence effect against ECHCG in %. Format: in vivo, Echinochloa crus-galli. In short, it runs like this: as §1
In experiment [11] the test system is VIOTR. Described as above. Conditions: Viola tricolor, 504 h, read-out: Post-emergence effect against VIOTR in %. It is filed as in vivo, Viola tricolor. In short, it runs like this:
as §1

The subject of experiment [12] is TRZAS. Kind of experiment: Post-emergence herbicidal effect and crop plant compatibility, greenhouse pot test. Particulars: 20 g/ha, one-leaf stage, rated visually after about 3 weeks vs untreated controls. Format: in vivo, Triticum aestivum. The gist of the method:
(§2)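 Sandy loam pots, greenhouse. One-leaf stage (2–3 wk after sowing) foliar spray; WP/EC in water + 0.5% additive, 600 l/ha; 20–320 g/ha. Visual score ~3 wk, 0–100% vs untreated.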

In experiment [13] the test system is LOLRI. Kind of experiment: Post-emergence herbicidal effect, greenhouse pot test. Conditions: Lolium rigidum, 504 h, 320 g/ha, read-out: Post-emergence effect against LOLRI in %. It is filed as in vivo, Lolium rigidum. In short, it runs like this: as §1
Experiment [14] relates to KCHSC. The experiment is described as above. Format: in vivo. Conditions: 320 g/ha. The gist of the method: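 Greenhouse plants in sandy loam, sprayed post-emergence at the one-leaf stage (2–3 weeks after sowing) with WP or EC formulations in water plus 0.5% additive at 600 l/ha. Rates 20 to 320 g/ha. Activity rated visually after about 3 weeks against untreated controls (0% like control, 100% dead).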

In experiment [15] the test system is ZEAMX. Kind of experiment: Post-emergence herbicidal effect and crop plant compatibility, greenhouse pot test. Format: in vivo, Zea mays. Conditions: one-leaf stage, rated visually after about 3 weeks vs untreated controls. In short, it runs like this:
as §2

`CCOC(=O)C(OC)Oc1nn(-c2cc(F)ccc2F)c(-c2cncc(F)c2)c1Br` (stereo not drawn) [Example I-33]: the pest or weed control at 80 g/ha in [1] (80 g/ha) came to 80%; in [2] (80 g/ha), 90%; in experiment [4] (80 g/ha) it was 80%; in experiment [8] (80 g/ha), 90%; in experiment [9] (80 g/ha), 90%; in [10] (80 g/ha), 80%. Moreover, in experiment [11] (80 g/ha), the pest or weed control at 80 g/ha was determined as 80%. For the same compound, the pest or weed control at 320 g/ha in experiment [1] (320 g/ha) worked out at 90%; in [2] (320 g/ha), 90%; in experiment [3] (Fallopia convolvulus, 504 h, read-out: Post-emergence effect against POLCO in %), 80%; in experiment [4] (320 g/ha), 90%; in [5], 80%; in experiment [6], 90%. Also, the pest or weed control at 320 g/ha in [7] (Avena fatua, 504 h, read-out: Post-emergence effect against AVEFA) amounted to 90%; in experiment [8] (320 g/ha), 90%; in experiment [9] (320 g/ha) it was 90%; in experiment [10] (320 g/ha), 90%; in experiment [11] (320 g/ha) it was 90%; in [13], 90%. Further, the pest or weed control at 20 g/ha in [8] (20 g/ha) and in experiment [11] (20 g/ha) was 80% each time. Further, the percent crop injury (phytotoxicity) to wheat, post-emergence at 20 g/ha in experiment [12] (Triticum aestivum, 504 h, read-out: Post-emergence effect at 20 g/ha against TRZAS in %) was 20%.

For `COC(Oc1nn(-c2ncccc2F)c(-c2ccc(F)nc2)c1C1CC1)C(=O)O` (stereo not drawn) [Example I-89], the “Post-emergence effect against KCHSC in %” value in [14] turned out to be 90%. Further, the “Post-emergence effect against POLCO in %” value in [3] was 90%. Besides, the pest or weed control at 320 g/ha in experiment [6] and in experiment [13] was 90% throughout. Also, the “Post-emergence effect against AVEFA” value in experiment [7] is 80%. Also, in [15] (20 g/ha), the “Post-emergence effect at 20 g/ha against ZEAMX in %” value stood at 0%. The “Post-emergence effect at 80 g/ha against ZEAMX in %” value in experiment [15] (80 g/ha) is listed as 0%. Further, in experiment [12], the “Post-emergence effect at 20 g/ha against TRZAS in %” value was 0%.
